# How the values were obtained:
# [1] = system: Rat Chronic Constriction Injury Model; test: Hargreaves test, thermal hyperalgesia, rat chronic constriction injury (Bennett) model; type: in vivo, Wistar rat; conditions: sulindac intraperitoneally 0.4 mg/kg/day; days 7-56; FIG. 3
# From the text: (§1) The inventors evaluated the efficacy of a 5 Month Sulindac/Polymer Drug Depot in the Rat Chronic Constriction Injury Model. The animal model was the Bennett Model (Wistar rat). The purpose: To determine whether a 5 month polymer sulindac-eluting depot can improve pain associated behavioral responses in a rat model of neuropathic pain.
# (§2) Experimental Design: Four loose chromic gut ligatures, 1 mm apart, were tied around the common sciatic nerve at mid-thigh. Each animal received treatment of test or control article-according to the dosing described in Table 4.
# (§3) To date, the inventors have conducted the present study for a period of 57 days and have employed the following two tests: (1) the Hargreaves test on days 7, 14, 21, 28, 35, 42, 49, and 56; and (2) the von Frey test on days 8, 15, 22, 29, 36, 43, 50, and 57. The results of theses tests are summarized in FIGS. 3-6 and show the efficacy of sulindac of the recited time periods.
# [2] = system: Rat Chronic Constriction Injury Model; test: von Frey test, mechanical allodynia, rat chronic constriction injury (Bennett) model; type: in vivo, Wistar rat; conditions: sulindac intraperitoneally 0.4 mg/kg/day; days 8-57; FIG. 4
# From the text: as §1, §2, §3
structure (smiles),measurement,setting,value
CC1=C(CC(=O)O)c2cc(F)ccc2/C1=C\c1ccc([S+](C)[O-])cc1 (centres unmarked) [sulindac],"pain behavioral response (percentage of baseline), thermal hyperalgesia, compared to unloaded polymer depot",[1],consistently reduced the behavioral response
same,"pain behavioral response (percentage of baseline), mechanical allodynia, compared to unloaded polymer depots",[2],reduced the behavioral response
